Test results reported in patent US4642341A, “Carbapenem antibiotics” (priority 1985, dated 1987).
Values after ≈ are worked out from the molar mass of the structure shown. Like-named read-outs stand apart in the source and are kept apart here.

Key:
[1] = system: S. aureus A15097 (Meth-res.); experiment: Minimum Inhibitory Concentration, tube dilution; assay type: cell-based; conditions: Staphylococcus aureus, table 6
[2] = system: P. rettgeri A22424; experiment: Minimum Inhibitory Concentration, tube dilution; assay type: cell-based; conditions: Providencia rettgeri, overnight 37° C., table 6, read-out: MIC
[3] = system: E. cloacae A-9656; experiment: Minimum Inhibitory Concentration, tube dilution; assay type: cell-based; conditions: Enterobacter cloacae, A9656; overnight 37° C.; table 6
[4] = Half-life in phosphate buffer pH 7.4; assay type: physicochemical; conditions: phosphate buffer, pH 7.4, τ1/2 (half-life)
Description: To a solution of p-nitrobenzyl 3-[2-(1-pyridinium)ethylthio)]-6α[1-(R)-hydroxyethyl]-7-oxo-1-azabicyclo(3.2.0)hept-2-ene-carboxylate diphenylphosphate (0.16 g, 0.22 mmol) in wet tetrahydrofuran (10mL) was added ether (10mL), potassium phosphate monobasic-sodium hydroxide buffer pH 7.4 (16 mL, 0.05 M) and 10% palladium on charcoal (0.16 g). The resulting mixture was hydrogenated under 40 psi for 1 h at 25° C. The two phases were separated and the organic phase was extracted with water (2×3 mL). The aqeuous solutions were combined, washed with ether (2×10 ml) and poured on top of a column (1.5×6.2 cm) pf μ-bondapak C-18 after the traces of organic solvents have been removed under vacuum. Elution of the column with water gave after lyophylization of the appropriate fractions a yellowish powder 0.062 g (84%), ir (KBr) .nu.max : 3700-3000 (OH), 1755 (C--O of β-lactam), 1630 (pyridinium), 1590 cm^-1 (carboxylate), ^1 Hmr (D2 O): 1.22 (3H, d, J=6.4 Hz, CH3 CHOH), 2.92 (d, J=9.1 Hz, H-4), 2.97 (d, J=9.1 Hz, H-4), 3.20 (dd, J=2.5 Hz, J=6.1 Hz, H-6), 3.44 (t, J=6.0 Hz, CH2 S), 3.93 (dd, J=9.1 Hz, J=2.5 Hz, H-5), 4.82 (t, J=6.0 Hz, CH2 N^+), 8.04 (m, Hm of pyridinium), 8.5 (m, Hp of pyridinium), 8.82 (dd, J=3.2. Hz, J=1.1 Hz, Ho of pyridinium), uv (H2 O) λ max : 259 (ε5800), 296 (ε7030) mμ, .tau.1/2 =13.5 h (measured at a concentration of 10^-4 M in phosphate buffer pH 7.4 at 36.8° C.).

[5] = system: S. pneumoniae A-9585; experiment: Minimum Inhibitory Concentration, tube dilution; assay type: cell-based; conditions: Streptococcus pneumoniae, A9585, overnight 37° C.; table 6
[6] = system: S. pyogenes A-9604; experiment: Minimum Inhibitory Concentration, tube dilution; assay type: cell-based; conditions: Streptococcus pyogenes, A9604, overnight 37° C.; table 6
[7] = system: S. aureus A-9537; experiment: Minimum Inhibitory Concentration, tube dilution; assay type: cell-based; conditions: Staphylococcus aureus, table 6, read-out: MIC
[8] = system: S. aureus A-9606 (Pen-res.); experiment: Minimum Inhibitory Concentration, tube dilution; assay type: cell-based; conditions: Staphylococcus aureus, Pen-res; table 6
[9] = system: S. faecalis A20688; experiment: Minimum Inhibitory Concentration, tube dilution; assay type: cell-based; conditions: Enterococcus faecalis
[10] = system: E. coli A15119; experiment: Minimum Inhibitory Concentration, tube dilution; assay type: cell-based; conditions: Escherichia coli, A15119, overnight 37° C.; table 6
[11] = system: E. coli A20341-1; experiment: Minimum Inhibitory Concentration, tube dilution; assay type: cell-based; conditions: Escherichia coli, A203411, overnight 37° C.; table 6
[12] = system: P. mirabilis A-9900; experiment: Minimum Inhibitory Concentration, tube dilution; assay type: cell-based; conditions: Proteus mirabilis, A9900, overnight 37° C.; table 6
[13] = system: P. vulgaris A21559; experiment: Minimum Inhibitory Concentration, tube dilution; assay type: cell-based; conditions: Proteus vulgaris, A21559, overnight 37° C.; table 6
[14] = system: S. marcescens A20019; experiment: Minimum Inhibitory Concentration, tube dilution; assay type: cell-based; conditions: Serratia marcescens, A20019, overnight 37° C.; table 6
[15] = system: P. aeruginosa A-9843A; experiment: Minimum Inhibitory Concentration, tube dilution; assay type: cell-based; conditions: Pseudomonas aeruginosa, A9843A, overnight 37° C.; table 6; read-out: MIC
[16] = system: P. aeruginosa A21213; experiment: Minimum Inhibitory Concentration, tube dilution; assay type: cell-based; conditions: Pseudomonas aeruginosa, A21213, overnight 37° C.; table 6; read-out: MIC
[17] = system: H. influenzae A-9833; experiment: Minimum Inhibitory Concentration, tube dilution; assay type: cell-based; conditions: Haemophilus influenzae, A9833; overnight 37° C.; table 6; read-out: MIC
[18] = system: H. influenzae A21518; experiment: Minimum Inhibitory Concentration, tube dilution; assay type: cell-based; conditions: Haemophilus influenzae, overnight 37° C., table 6
[19] = system: B. fragilis A22862; experiment: Minimum Inhibitory Concentration, tube dilution; assay type: cell-based; conditions: Bacteroides fragilis, overnight 37° C., table 6
[20] = system: B. fragilis A22696; experiment: Minimum Inhibitory Concentration, tube dilution; assay type: cell-based; conditions: Bacteroides fragilis
[21] = system: E. cloacae A9659; experiment: Minimum Inhibitory Concentration, tube dilution; assay type: cell-based; conditions: Enterobacter cloacae, A9659, overnight 37° C.; table 6; read-out: MIC
[22] = system: M. morganii A15153; experiment: Minimum Inhibitory Concentration, tube dilution; assay type: cell-based; conditions: Morganella morganii, A15153, overnight 37° C.; table 6
[23] = system: P. aeruginosa A20481; experiment: Protective effect, intramuscular treatment of infected mice (table 7); assay type: in vivo; conditions: Pseudomonas aeruginosa, A20481, im; i.m. 1 and 3.5 hours post-infection; ~1×10^5 organisms i.p.; read-out: PD50 /treatment
Description: (§1) Drugs were administered i.m. 0 to 2 hours post-infection (A9606) or 1 and 3.5 hours post-infection for the others.

[24] = system: P. mirabilis A9900; experiment: as above; assay type: in vivo; conditions: Proteus mirabilis, A9900, im; i.m. 1 and 3.5 hours post-infection; ~1×10^7 organisms i.p.; read-out: PD50 /treatment
Description: as §1

[25] = system: S. aureus A9606; experiment: as above; assay type: in vivo; conditions: Staphylococcus aureus, A9606, im; i.m. 0 to 2 hours post-infection; ~1×10^9 organisms i.p.; read-out: PD50 /treatment
Description: as §1

[26] = system: P. aeruginosa A9843A; experiment: animal or person; assay type: in vivo, mice; conditions: Pseudomonas aeruginosa, in Mus musculus, im, 3.5 h, read-out: PD50 /treatment
Description: as §1

[27] = Pharmacokinetic parameters in the mouse after intramuscular dose; assay type: in vivo, mice; conditions: im, 20 mg/kg
Description: Also shown is the urinary recovery in the mice.
Compounds were solubilized in 0.1 M phosphate buffer pH 7.

[28] = system: K. pneumoniae A-9664; experiment: Minimum Inhibitory Concentration, tube dilution; assay type: cell-based; conditions: Klebsiella pneumoniae, A9664, overnight 37° C.; table 6
[29] = system: P. aeruginosa A9843A; experiment: animal or person; assay type: in vivo, mice; conditions: Pseudomonas aeruginosa, in Mus musculus, im, read-out: PD50 /treatment
Description: The PD50 (dose in mg/kg required to give protection to 50% of the infected mice) is indicated.

Compound | MIC [1] | MIC [2] | MIC [3] | half-life at 100 µM [4] | MIC [5] | MIC [6] | MIC ([7]; A9537, 50% serum) | MIC ([7]; A9537, overnight 37° C.) | MIC [8] | MIC [11] | MIC [12] | MIC [13] | MIC [14] | MIC [15] | MIC [16] | MIC [19] | MIC [21] | MIC [22] | other results
CC(C[n+]1ccccc1)SC1=C(C(=O)[O-])N2C(=O)[C@H]([C@@H](C)O)[C@H]2C1 (single isomer, unassigned) [Ex. 15 (cmp. "B")] | 0.03 µg/mL (≈ 0.0861 µM) | 0.06 µg/mL (≈ 0.172 µM) | 0.06 µg/mL (≈ 0.172 µM) | 12.6 h |  |  |  |  |  |  |  |  |  |  |  |  |  |  | 
Cc1cccc[n+]1CCSC1=C(C(=O)[O-])N2C(=O)[C@H]([C@@H](C)O)[C@H]2C1 [Example 7, 3-[2-(1-(2-methylpyridinium))ethylthio]-6α-[1-(R)-hydroxyethyl]-7-oxo-1-azabicyclo(3.2.0)hept-2-ene-carboxylate] | > 63 µg/mL |  |  | 15 h | 0.03 µg/mL (≈ 0.0861 µM) | 0.03 µg/mL (≈ 0.0861 µM) | 0.03 µg/mL (≈ 0.0861 µM) | 0.03 µg/mL (≈ 0.0861 µM) | 0.03 µg/mL (≈ 0.0861 µM) | 0.03 µg/mL (≈ 0.0861 µM) | 0.03 µg/mL (≈ 0.0861 µM) | 0.03 µg/mL (≈ 0.0861 µM) | 0.03 µg/mL (≈ 0.0861 µM) | 4 µg/mL (≈ 11.5 µM) | 1 µg/mL (≈ 2.87 µM) | 0.06 µg/mL (≈ 0.172 µM) | 0.06 µg/mL (≈ 0.172 µM) | 0.03 µg/mL (≈ 0.0861 µM) | MIC ([9]; A20688): 0.5 µg/mL (≈ 1.44 µM); MIC [10]: 0.03 µg/mL (≈ 0.0861 µM); MIC [17]: > 32 µg/mL; MIC [18]: > 32 µg/mL; MIC [20]: 0.5 µg/mL (≈ 1.44 µM); ED50 [23]: 1.4 mg/kg; ED50 [24]: ~22 mg/kg; ED50 [25]: 0.6 mg/kg; ED50 [26]: 0.9 mg/kg; AUC ([27]; blood): 7000 ng·h/mL; Cmax ([27]; blood): 15000 ng/mL; half-life ([27]; blood, read-out: T1/2 (blood)): 0.183 h; dose excreted ([27]; urine, read-out: Urine Recovery): 49 ± 9%
Cc1cccc(C)[n+]1CCSC1=C(C(=O)[O-])N2C(=O)[C@H]([C@@H](C)O)[C@H]2C1 [Example 12] |  | 0.5 µg/mL (≈ 1.38 µM) | 0.5 µg/mL (≈ 1.38 µM) |  | 0.002 µg/mL (≈ 0.00552 µM) | 0.002 µg/mL (≈ 0.00552 µM) | 0.03 µg/mL (≈ 0.0828 µM) | 0.008 µg/mL (≈ 0.0221 µM) | 0.016 µg/mL (≈ 0.0441 µM) | 0.016 µg/mL (≈ 0.0441 µM) | 0.06 µg/mL (≈ 0.166 µM) | 0.03 µg/mL (≈ 0.0828 µM) | 0.06 µg/mL (≈ 0.166 µM) | > 32 µg/mL | 16 µg/mL (≈ 44.1 µM) | 0.06 µg/mL (≈ 0.166 µM) | 0.25 µg/mL (≈ 0.69 µM) | 0.06 µg/mL (≈ 0.166 µM) | MIC ([9]; A20688, overnight 37° C., table 6, read-out: MIC): 0.25 µg/mL (≈ 0.69 µM); MIC [28]: 0.06 µg/mL (≈ 0.166 µM); MIC ([20]; overnight 37° C., table 6, read-out: MIC): 0.25 µg/mL (≈ 0.69 µM); ED50 [29]: > 25 mg/kg
